# In ChEMBL document CHEMBL5360657, “Discovery of the TLR7/8 Antagonist MHV370 for Treatment of Systemic Autoimmune Diseases” (ACS Med Chem Lett, 2023):
# Experiments:
# [1] = Solubility of the compound; assay type: physicochemical
# [2] = biological target: Voltage-gated inwardly rectifying potassium channel KCNH2 (Homo sapiens, UniProt Q12809); assay: Displacement of [3H]-dofetilite from human ERG (unknown origin); assay type: toxicity
# Toll-like receptor 7 = biological target: T1, Toll-like receptor 7 (Mus musculus, UniProt P58681); assay: Antagonist activity at TLR7 in mouse Splenocyte assessed as reduction in IFN-alpha level measured after 20 hrs by Spectramax M5 method; assay type: cell-based
# T1 sequence (P58681 whole entry): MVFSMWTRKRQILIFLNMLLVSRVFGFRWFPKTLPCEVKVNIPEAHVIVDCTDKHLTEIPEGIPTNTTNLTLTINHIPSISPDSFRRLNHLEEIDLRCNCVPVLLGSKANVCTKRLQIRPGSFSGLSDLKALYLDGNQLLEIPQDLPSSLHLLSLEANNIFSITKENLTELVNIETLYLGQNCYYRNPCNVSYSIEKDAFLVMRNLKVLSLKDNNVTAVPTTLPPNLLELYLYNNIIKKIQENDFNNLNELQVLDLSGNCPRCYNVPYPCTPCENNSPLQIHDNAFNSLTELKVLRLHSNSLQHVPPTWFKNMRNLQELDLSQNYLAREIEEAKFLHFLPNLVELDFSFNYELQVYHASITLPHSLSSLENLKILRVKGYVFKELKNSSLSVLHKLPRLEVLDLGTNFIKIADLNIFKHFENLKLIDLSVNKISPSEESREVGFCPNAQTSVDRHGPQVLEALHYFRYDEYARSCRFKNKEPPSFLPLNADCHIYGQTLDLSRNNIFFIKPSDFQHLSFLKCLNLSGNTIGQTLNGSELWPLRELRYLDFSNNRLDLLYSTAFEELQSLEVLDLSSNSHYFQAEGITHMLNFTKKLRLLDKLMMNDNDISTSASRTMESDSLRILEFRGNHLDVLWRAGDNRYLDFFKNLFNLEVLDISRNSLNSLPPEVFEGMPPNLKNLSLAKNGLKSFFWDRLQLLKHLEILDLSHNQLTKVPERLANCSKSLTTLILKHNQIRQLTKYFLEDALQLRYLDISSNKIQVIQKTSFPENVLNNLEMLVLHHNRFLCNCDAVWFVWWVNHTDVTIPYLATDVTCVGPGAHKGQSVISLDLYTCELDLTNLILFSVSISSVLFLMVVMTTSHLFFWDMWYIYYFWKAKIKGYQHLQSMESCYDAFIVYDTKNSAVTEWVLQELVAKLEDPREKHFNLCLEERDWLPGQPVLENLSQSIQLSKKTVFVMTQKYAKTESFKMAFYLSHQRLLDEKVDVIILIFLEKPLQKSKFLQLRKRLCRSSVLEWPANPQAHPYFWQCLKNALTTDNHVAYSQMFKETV
# Sequence of Voltage-gated inwardly rectifying potassium channel KCNH2 (Q12809 whole entry): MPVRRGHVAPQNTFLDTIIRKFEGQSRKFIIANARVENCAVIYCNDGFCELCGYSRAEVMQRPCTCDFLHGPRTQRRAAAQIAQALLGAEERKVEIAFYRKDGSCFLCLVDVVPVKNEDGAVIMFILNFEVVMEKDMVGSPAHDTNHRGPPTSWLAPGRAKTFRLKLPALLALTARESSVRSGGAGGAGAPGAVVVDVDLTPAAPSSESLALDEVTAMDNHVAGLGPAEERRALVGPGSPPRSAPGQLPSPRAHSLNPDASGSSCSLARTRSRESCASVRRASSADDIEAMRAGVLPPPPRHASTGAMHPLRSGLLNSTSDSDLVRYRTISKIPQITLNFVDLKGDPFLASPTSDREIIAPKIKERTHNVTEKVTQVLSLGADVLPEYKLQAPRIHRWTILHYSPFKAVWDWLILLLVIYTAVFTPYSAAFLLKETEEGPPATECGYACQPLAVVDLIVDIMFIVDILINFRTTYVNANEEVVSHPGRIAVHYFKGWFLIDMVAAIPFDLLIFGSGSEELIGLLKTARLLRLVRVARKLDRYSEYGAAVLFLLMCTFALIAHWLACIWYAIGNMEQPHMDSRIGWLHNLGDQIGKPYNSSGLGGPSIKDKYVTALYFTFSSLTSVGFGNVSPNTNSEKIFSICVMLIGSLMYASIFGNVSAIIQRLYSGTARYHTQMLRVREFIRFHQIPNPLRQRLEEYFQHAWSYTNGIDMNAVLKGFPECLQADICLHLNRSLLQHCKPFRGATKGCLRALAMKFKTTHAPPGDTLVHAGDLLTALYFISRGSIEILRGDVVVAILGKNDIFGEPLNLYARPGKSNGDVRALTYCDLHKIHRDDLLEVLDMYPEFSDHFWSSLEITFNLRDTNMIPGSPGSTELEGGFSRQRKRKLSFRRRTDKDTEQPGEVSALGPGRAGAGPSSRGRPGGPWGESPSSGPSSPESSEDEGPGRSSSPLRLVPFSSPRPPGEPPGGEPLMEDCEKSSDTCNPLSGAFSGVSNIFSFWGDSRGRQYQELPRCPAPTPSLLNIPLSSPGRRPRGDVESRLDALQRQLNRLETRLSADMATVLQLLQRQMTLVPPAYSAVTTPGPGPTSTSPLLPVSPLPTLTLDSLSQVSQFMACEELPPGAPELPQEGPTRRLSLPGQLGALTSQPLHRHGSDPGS
compound,measurement,setting,value
Cc1cc(-c2cnc(OCC34CCC(N)(CC3)CC4)c(C)c2)c2cnn(C)c2n1,solubility,[1],110 µM
same,IC50,[2],3.4 µM
same,IC50,Toll-like receptor 7,< 0.005 µM
